Consider two molecules from patent publication US11331294B2, “Benzoquinone derivative E3330 in combination with chemotherapeutic agents for the treatment of bladder cancer” (Indiana University Research and Technology Corporation, priority 2007, dated 2022).

In one test the test system is UC3 and T24 cells. Description: Incucyte caspase-3/7 apoptosis assay. Type of test: cell-based, human. The conditions noted are these: red fluorescence over time. The protocol:
UC3 and T24 cells were plated in 96-well plates at 3,500 cell/well and allowed to attach overnight. Increasing amounts of APX2009 or APX2014 were added to each well along with 1 μM of the caspase reagent (Caspase-3/7 Red, Essen Bioscience) and then the cells were allowed to recover for 2 hours prior to beginning imaging with the Incucyte system (Essen Bioscience). Each well was imaged for phase contrast as well as red fluorescence every 2 hours for 96 hours. The Incucyte software generated movies of the cells following treatment as well as real-time imaging data with red fluorescence normalized to the percent confluency of the well.
To assay for caspase-3/7 mediated apoptosis, the increase in red fluorescence was analyzed over time following the addition of APX2009 and APX2014.

Another test concerns survivin and Cyclin D1. The experiment in a line: Western blot of survival and proliferation proteins in cells. The conditions noted are these: immunoblot. Type of test: cell-based, human. The protocol: FIGS. 36A-36H. […] In cytokine-induced T24 and UC3 cells NFκB-driven luciferase (FIG. 36A), STAT3-driven luciferase (FIG. 36B), and AP-1-driven luciferase (FIG. 36C) were quantified and normalized via Renilla following treatment with the corresponding cell growth-inhibitory IC50 concentrations. T24 cells were treated with APX2009 (8.5 μM) and APX2014 (6.5 μM), and UC3 cells were treated with APX2009 (6.1 μM) and APX2014 (4.6 μM) for 24 h. (*-p<0.05 APX treated vs vehicle, n=4). […] In the panels of FIGS. 36F & 36G, co-expression of survivin and APE1/Ref-1 was analyzed in superficial (FIG. 36F) and invasive human bladder tumors (FIG. 36G) in patients, and found nearly universal overlap of positivity in both in human samples. This was also true in cisplatin-refractory patients from the tissue microarray specimens (FIG. 36H).
Whole cell extracts were prepared using RIPA (radioimmunoprecipitation) buffer containing protein inhibitors (1:100 PMSF, 1:100 orthovanadate and 1:100 protease inhibitor). Total protein concentration was determined via Lowry or BCA assay. 10-50 μg/well of each lysate was separated by SDS-PAGE using a 12% SDS-polyacrylamide gel. Blots were blocked with 5% nonfat dry milk in 1×TBS for 1 h and incubated overnight with primary antibodies to either APE1/Ref-1 (1:1000 dilution, Novus, NB-100-116), survivin (1:1000, Cell Signaling), Cyclin D1 (1:500, Abcam), PARP-1 (1:1000, Cell Signaling) or GAPDH (1:5000, Cell Signaling). After blots were washed three-six times with TBS-Tween, blots were incubated with HRP-conjugated secondary mouse antibodies (1:5000, Pierce). After washing three-six times with TBS-Tween, blots were visualized by enhanced chemiluminescence (West Pico/West Femto, Pierce).
For further confirmation of a decrease in NFκB and STAT3 transcriptional activity, levels of survivin and Cyclin D1 were examined Both survivin and Cyclin D1 are known to be downstream targets of NFκB and STAT3. […] However, unlike APE1/Ref-1, survivin expression was primarily nuclear in both urothelial confined and invasive lesions.

A further test relates to CB-ECFC cells. Description: Capillary tube formation assay on […]. The conditions noted are these: about eight hours after seeding. The test is classed as cell-based. The protocol:
Inhibition of capillary tube formation. The capillary tube formation assay was performed using CB-ECFC cells plated on […]® and treated with APX3330 or control media. ECFCs were cultured as previously described (Blood, 1 Nov. 2004, Vol. 104, No. 9, pp. 2752-2760). ECFC colonies appeared between 5 and 22 days of culture. Colonies were counted by visual inspection using an inverted microscope (Olympus, Lake Success, N.Y.) under ×40 magnification. Cells were passaged as previously described. Blood, 1 Nov. 2004, Vol. 104, No. 9, pp. 2752-2760.)
The tube formation assay was performed as described previously (J. Biol. Chem. 274 (1999), pp. […]). Various concentrations of APX3330 were given to CB-ECFCs for about 30 min at room temperature before seeding and plated onto the layer of […]® at a density of about 1×10^4 cells/well. After about eight hours, the enclosed networks of complete tubes from randomly chosen fields were counted and photographed under a microscope.

A further test has as its system ECFC colonies. Description: Limiting dilution assay (LDA). Type of test: cell-based. The conditions noted are these: 25, 37.5, 50 μM. On the procedure: Limiting dilution assay. […] ECFCs were cultured as previously described (Blood, 1 Nov. 2004, Vol. 104, No. 9, pp. 2752-2760). ECFC colonies appeared between 5 and 22 days of culture. Colonies and the number of cells per colony were counted by visual inspection using an inverted microscope. […] Increasing amounts of APX3330(RN3-3) leads to a decrease in the number of colonies with large numbers of cells and an increase in colonies with only small cell numbers indicative of inhibition of cell growth. (FIG. 9). (In FIG. 9, the bars are, left to right, EtOH, and E330 dosed at 25 μM, 37.5 μM, and 50 μM.)

The subject of another test is endothelial cells. Description: In vitro tube formation assay. Type of test: cell-based. An excerpt:
In vitro tube formation assay.

In a further test the test system is multiple myeloma cells. The experiment in a line: MTS assay of multiple myeloma cells, combinations (CalcuSyn). The test is classed as cell-based. On the procedure:
APX3330 in combination with chemotherapeutic Melphalan. […] Synergistic plots made using CalcuSyn software. APX3330 was either given alone or in combination with melphalan. As an indicator of DNA double stranded breaks (DSBs), the phosphorylation of histone H2AX at Ser^139 was measured with a phosphorylation-specific H2AX antibody from Upstate Cell Signaling Solutions (Waltham, Md.). Cells were treated with melphalan alone or melphalan plus APX3330. After drug treatment, exponentially growing cells were harvested, washed in cold PBS, and lysed in about 100 μL RIPA assay buffer as described above. Protein was quantified and electrophoresed in SDS gel-loading buffer on a 12% SDS-polyacrylamide gel. Mouse monoclonal anti-phosphohistone H2AX (about 1:1000) or anti-actin antibody (about 1:1000; as a loading control, LabVision Corp., NeoMarkers, Fremont, Calif.) was used to probe for protein levels as described previously. Bands were detected using a chemiluminescence kit from Roche Applied Biosciences (Indianapolis, Ind.). The bands were visualized using Bio-Rad Chemidoc XRS (Hercules, Calif.) and quantitated using Chemidoc software, Quantity One 4.6.1. […]
APX3330 in combination with Methoxyamine-multiple myeloma cells. […] Data was calculated using the CalcuSyn software which is based on the Chou-Talalay algorithm (Chou-Talalay; Advances in Enzyme Regulation 22, 27-55). […]

On to `CCC/C(=C\C1=C(OC)C(=O)c2ccccc2C1=O)C(=O)N(CC)CC` [APX2009, [(2E)-2-[(3-methoxy-1,4-dioxo-1,4-dihydronaphthalen-2-yl)methylidene]-N,N-diethylpentanamide]], for which the caspase-3/7 activation entry with UC3 and T24 cells is “dose-dependent increase in caspase activation”. For the same molecule, in the test with survivin and Cyclin D1, the “expression of c-Myc, Bcl-2, Bcl-XL” value is reported as “No change in expression”; the “expression of survivin and Cyclin D1” value is “significantly down-regulated”.
For the molecule `CCCCCCCCC/C(=C\C1=C(C)C(=O)C(OC)=C(OC)C1=O)C(=O)O` [APX3330], in the test on CB-ECFC cells, the tube formation entry is listed as “inhibit tube formation”. Also, the “growth of large cell number colonies” value in the test with ECFC colonies was “inhibit growth of large cell number colonies”. Moreover, in the test with endothelial cells (combination use with AVASTIN), the “tube formation, combination of AVASTIN and APX3330” value is given as “synergistically more effective than either alone”. The “formation of blood-vessel-like tubules” value with endothelial cells (dose dependent) is “prevented formation of blood-vessel-like tubules”. In addition, the “killing of multiple myeloma cells in combination with melphalan” value in the test with multiple myeloma cells (combination with melphalan, 72 hours) is reported as “synergistically enhance the killing of multiple myeloma cells”. The “killing of multiple myeloma cells in combination with methoxyamine” value in the test on multiple myeloma cells (combination with methoxyamine) is given as “enhanced killing of multiple myeloma cells”.
